Results as given in US20120071516A1, “COMPOUNDS THAT MODULATE INTRACELLULAR CALCIUM” (CalciMedica, Inc., priority 2010, published 2012).

Experiments:
RBL-2H3 cells = test: Fluorescence-based assay of store-operated calcium entry in RBL-2H3 cells; format: cell-based; details: Rattus norvegicus, thapsigargin, 50% inhibition of Upslope (7 seconds after calcium addition), read-out: RBL-2H3 (IC50, μmol)
Protocol: B. Fluorescence-Based Assay of Store-Operated Calcium Entry in RBL-2H3 Cells.
RBL-2H3 cells are obtained from ATCC and maintained in complete medium with 10% FBS at 37° C./6% CO2.
The day prior to performing the assay, RBL-2H3 cells are plated in 50 μL of complete medium in a 384 well plate. Cells are grown at 37° C./6% CO2 overnight and grow to 50-60% confluence by the next day. On the assay day, 1.5 μM Fluo-4-AM dye (Invitrogen) in complete medium is added and incubated for 1 hour at RT. Cells are washed twice in Ca^2+-free HBSS buffer and 35 μL Ca^2+-free HBSS buffer is added to each well. 10 μL of a test compound prepared in a Ca^2+-free HBSS solution at 4.5× of the desired concentration is added to a well and incubated for 5 minutes at RT. 10 μL of thapsigargin prepared in a Ca^2+-free HBSS solution at 5.5× of the desired concentration (5.5 uM) is added to each well and incubated for an additional 25 minutes. The initial baseline fluorescence signal is measured with a FLIPR^384 (Molecular Devices) plate reader. 5 μL of 12× calcium in HBSS (12 mM) is added and changes in cellular fluorescence are measured with the FLIPR^384 plate reader. In each well, the change in the fluorescent signal as a function of time due to calcium entry into the cell is determined by calculating the difference between the fluorescent signal measured 7 seconds after calcium addition and the initial baseline fluorescence signal at time zero (t=0). This parameter is designated Upslope. The IC50 value is calculated as the concentration at which 50% of the Upslope is inhibited.

Orai1/STIM1 = target: T1, Orai1/STIM1 (Homo sapiens, UniProt Q96D31); test: Fluorescence-based assay of store-operated calcium entry in Orai1/STIM1 stable cells; format: cell-based; set-up: key to Orai1/STIM1 (IC50, μmol): A ≦ 1.0 μmol; B > 1.0 μmol; -- = no fit; details: HEK-293 cells stably expressing human STIM1 and Orai1, 50% inhibition of Peak-Basal fluo-4 signal, 30 minutes compound incubation; for IC50: read-out: Orai1/STIM1 (IC50, μmol)
T1 construct: c-myc (C); expressed in transfected cells
Protocol: A. Fluorescence-Based Assay of Store-Operated Calcium Entry in Orail/STIM1 Stable Cells.
Cells stably expressing recombinant human STIM1 and Orail are generated by transfecting a human Orail expression plasmid (pcDNA3.1-Orail-cmyc) into HEK-293 cells stably overexpressing human STIM1 (Roos et al. 2005 JCB 169(3): 435-445). Colonies of cells stably expressing both STIM1 and Orail proteins are selected and then subcloned by limiting dilution. Cells were cultured at 37° C./6% CO2 in complete medium with 10% FBS and appropriate selection markers.
The day prior to performing the assay Orail/STIM1 stable cells are plated in 50 μL of complete medium at 90-95% confluence in a 384 well plate. Cells are grown at 37° C./6% CO2 overnight. On the day of the assay, 1.5 μM fluo-4-AM (Invitrogen) in complete medium is added to the cells, which are then incubated for 1 hour at RT. Cells are washed once in Ca^2+-free HBSS (Hank's buffered saline solution) and 35 μl of Ca^2+-free HBSS is added to each well. Test compounds are added to wells in a 10 μL Ca^2+-free HBSS solution, prepared at 4.5× the desired final concentration, and incubated for 30 minutes at RT. The initial baseline fluorescence signal is then measured with a FLIPR^384 (Molecular Devices) plate reader. Calcium entry is initiated by adding 5 μl of 10×CaCl2 (10 mM) in HBSS, and changes in cellular fluorescence are measured with the FLIPR^384 plate reader. In each well, the magnitude of the fluorescence signal as a result of calcium entry into the cell is determined by calculating the difference between the peak fluorescence signal measured after calcium addition and the initial baseline fluorescence signal (designated Peak-Basal). IC50 values are typically calculated as the concentration that inhibited 50% of the Peak-Basal signal (Table A).

Jurkat cells = Jurkat cells and colon cancer cells; cited from earlier work
[1] = target: STIM1 and Orail in HEK293 cells (Homo sapiens, UniProt Q96D31); details: HEK293 cells co-expressing STIM1 and Orai1; cited from earlier work
Sequence of STIM1 and Orail in HEK293 cells (Q96D31 whole entry): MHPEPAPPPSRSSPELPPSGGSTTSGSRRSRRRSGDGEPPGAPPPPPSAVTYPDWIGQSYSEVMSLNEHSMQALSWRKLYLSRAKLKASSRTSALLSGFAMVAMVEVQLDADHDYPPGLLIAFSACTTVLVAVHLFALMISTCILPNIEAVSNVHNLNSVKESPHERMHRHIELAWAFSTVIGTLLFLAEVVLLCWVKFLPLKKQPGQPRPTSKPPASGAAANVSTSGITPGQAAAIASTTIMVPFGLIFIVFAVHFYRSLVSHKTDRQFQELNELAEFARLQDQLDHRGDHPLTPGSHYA

T1 sequence (Q96D31 whole entry): as above

SMILES	IC50 (RBL-2H3 cells) [nM]	IC50 (Orai1/STIM1) [nM]	other results
Cn1nc(-c2nccs2)cc1-c1ccc(C(=O)Nc2ccccc2F)[se]1	≤ 1000	≤ 1000	
Cc1cc(OC(F)(F)F)ccc1-c1cnc(NC(=O)c2c(F)cccc2F)[se]1	≤ 1000		Orai1/STIM1 (IC50, μmol) (Orai1/STIM1): --
Cc1cc2scnc2cc1-c1ccc(C(=O)Nc2c(F)cccc2F)[se]1	≤ 1000	≤ 1000	
Cn1nc(-c2nccs2)cc1-c1ccc(C(=O)Nc2c(F)cccc2F)[se]1	≤ 1000	≤ 1000	
Cc1cc2c(cc1-c1cnc(NC(=O)c3c(F)cccc3F)[se]1)OC(F)(F)O2	≤ 1000	> 1000	
Cc1nnsc1C(=O)Nc1ccc(-n2nc(C(F)(F)F)cc2C(F)(F)F)cc1 [BTP-2]			inhibition of SOCE (Jurkat cells): inhibits; inhibition of proliferation (Jurkat cells): inhibits
Cn1nc(C(F)(F)F)cc1-c1ccc(C(=O)Nc2ccncc2F)[se]1	≤ 1000	≤ 1000	
NCCOB(c1ccccc1)c1ccccc1 [2-aminoethoxydiphenylborate]			block of store-operated Ca2+ entry [1]: completely blocked
Cc1ccc(F)cc1-c1cnc(NC(=O)c2ccccc2F)[se]1	≤ 1000	≤ 1000	
Cc1ccccc1-c1cnc(NC(=O)c2ccccc2F)[se]1	≤ 1000	≤ 1000	
Cn1nc(C(F)(F)F)cc1-c1ccc(C(=O)Nc2c(F)cccc2F)[se]1	≤ 1000	≤ 1000	
Cc1ccccc1-c1cnc(NC(=O)c2c(F)cccc2F)[se]1	≤ 1000	≤ 1000	
Cn1nc(-c2ccccc2F)cc1-c1cnc(NC(=O)c2ccccc2F)[se]1	≤ 1000	> 1000	
O=C(Nc1[se]cc(-c2ccc(Cl)cc2)c1C(=O)O)c1nc2ccccc2s1	> 1000	> 1000	
Cc1cc2c(cc1-c1cnc(NC(=O)c3ccccc3F)[se]1)OC(F)(F)O2	≤ 1000	≤ 1000	
Cc1cc(OC(F)(F)F)ccc1-c1cnc(NC(=O)c2ccccc2F)[se]1	≤ 1000	≤ 1000	
Cn1nc(C(F)(F)F)cc1-c1cnc(NC(=O)c2ccccc2F)[se]1	≤ 1000	≤ 1000	
Cn1nc(-c2nccs2)cc1-c1ccc(C(=O)Nc2ccncc2F)[se]1	≤ 1000	≤ 1000	

SMILES	IC50 (RBL-2H3 cells) [nM]	IC50 (Orai1/STIM1) [nM]	other results
Cn1nc(-c2ccccc2F)cc1-c1ccc(C(=O)Nc2c(F)cccc2F)[se]1	≤ 1000	≤ 1000	
O=C(Nc1ccncc1F)c1ccc(-c2cc(C(F)(F)F)ccc2Cl)[se]1	> 1000	> 1000	
Cn1nc(-c2ccccc2F)cc1-c1ccc(C(=O)Nc2ccccc2F)[se]1	≤ 1000	≤ 1000	
O=C(Nc1ncc(-c2ccccc2C(F)(F)F)[se]1)c1ccccc1F	≤ 1000	≤ 1000	
Cc1ccc(Cl)cc1-c1cnc(NC(=O)c2ccccc2F)[se]1	≤ 1000	≤ 1000	
CCn1nc(C(F)(F)F)cc1-c1cnc(NC(=O)c2ccccc2F)[se]1	≤ 1000	≤ 1000	
Cn1nc(-c2ccco2)cc1-c1ccc(C(=O)Nc2ccccc2F)[se]1	≤ 1000	≤ 1000	
Cn1nc(-c2ccco2)cc1-c1ccc(C(=O)Nc2ccncc2F)[se]1	≤ 1000	≤ 1000	
Cn1nc(-c2ccccc2F)cc1-c1ccc(C(=O)Nc2ccncc2F)[se]1	≤ 1000	≤ 1000	
Cn1nc(C(F)(F)F)cc1-c1ccc(C(=O)Nc2ccccc2F)[se]1	≤ 1000	≤ 1000	
O=C(Nc1[se]cc(-c2ccc(Br)cc2)c1C(=O)O)c1cc2ccccc2o1	≤ 1000	≤ 1000	
Cc1cscc1-c1cnc(NC(=O)c2ccccc2F)[se]1	≤ 1000	> 1000	
Cn1nc(C(F)(F)F)cc1-c1cnc(NC(=O)c2ccccc2Cl)[se]1	≤ 1000	≤ 1000	
O=C(Nc1[se]cc(-c2ccc(Br)cc2)c1C(=O)O)c1nc2ccccc2s1	≤ 1000	> 1000	
Cc1ccccc1-c1cnc(NC(=O)c2ccccc2Cl)[se]1	≤ 1000	≤ 1000	
Cn1nc(-c2ccco2)cc1-c1ccc(C(=O)Nc2c(F)cccc2F)[se]1	> 1000		Orai1/STIM1 (IC50, μmol) (Orai1/STIM1): --
Cn1nc(C(F)(F)F)cc1-c1cnc(NC(=O)c2c(F)cccc2F)[se]1	≤ 1000	≤ 1000	
Cc1nc2cc(Cl)c(-c3ccc(C(=O)Nc4ccccc4F)[se]3)cc2o1	≤ 1000	≤ 1000	
